One assay concerns the target T1, NOX1 (Homo sapiens, UniProt Q9Y5S8).
T1 construct: endogenous in cells; host or cells: HT29
T1 sequence (Q9Y5S8 1-564): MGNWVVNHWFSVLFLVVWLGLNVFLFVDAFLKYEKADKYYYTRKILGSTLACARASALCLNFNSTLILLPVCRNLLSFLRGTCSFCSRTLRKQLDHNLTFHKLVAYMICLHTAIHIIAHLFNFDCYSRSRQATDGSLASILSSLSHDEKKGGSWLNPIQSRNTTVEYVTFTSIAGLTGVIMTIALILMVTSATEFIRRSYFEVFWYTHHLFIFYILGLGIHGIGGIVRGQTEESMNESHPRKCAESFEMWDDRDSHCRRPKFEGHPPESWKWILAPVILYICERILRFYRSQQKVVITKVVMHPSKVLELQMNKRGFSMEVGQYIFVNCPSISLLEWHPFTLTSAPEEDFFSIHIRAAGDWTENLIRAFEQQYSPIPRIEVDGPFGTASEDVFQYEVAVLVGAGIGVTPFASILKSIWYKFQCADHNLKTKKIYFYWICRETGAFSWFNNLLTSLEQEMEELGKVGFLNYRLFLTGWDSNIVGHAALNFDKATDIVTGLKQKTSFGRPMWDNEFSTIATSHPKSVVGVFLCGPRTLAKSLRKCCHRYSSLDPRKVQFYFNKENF
T1 sequence (P13498 2-195 partner limits assumed): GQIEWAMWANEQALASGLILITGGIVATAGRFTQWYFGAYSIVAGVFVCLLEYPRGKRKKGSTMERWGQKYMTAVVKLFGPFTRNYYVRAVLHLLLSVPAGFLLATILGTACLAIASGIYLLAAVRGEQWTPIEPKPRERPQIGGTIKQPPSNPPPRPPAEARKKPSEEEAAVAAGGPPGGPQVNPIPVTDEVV
Put plainly: NOX1 HT29 cell-based assay (luminol/HRP luminescence). The conditions noted are these: HT29 cells, DMSO = 0%, GKT137831 = 100%; for inhibition at 0.1 µM / inhibition at 1 µM: HT-29. A digest of the protocol:
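HT29 cells (1-2×10^5 per well) pretreated 30-60 min at 37 °C with compound at 100 nM and 1000 nM final, in duplicate, 0.1% DMSO. ROS read as luminol (100 μM)/HRP (0.4 U) luminescence. Activity normalised to DMSO (0%) and GKT137831 (100%).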

Another assay addresses T2, NOX2 (Homo sapiens, UniProt P04839).
T2 construct: HL-60 cells, rich in NOX2 expression; endogenous in cells; host or cells: DMSO-differentiated HL-60
T2 sequence (P04839 2-570 limits assumed): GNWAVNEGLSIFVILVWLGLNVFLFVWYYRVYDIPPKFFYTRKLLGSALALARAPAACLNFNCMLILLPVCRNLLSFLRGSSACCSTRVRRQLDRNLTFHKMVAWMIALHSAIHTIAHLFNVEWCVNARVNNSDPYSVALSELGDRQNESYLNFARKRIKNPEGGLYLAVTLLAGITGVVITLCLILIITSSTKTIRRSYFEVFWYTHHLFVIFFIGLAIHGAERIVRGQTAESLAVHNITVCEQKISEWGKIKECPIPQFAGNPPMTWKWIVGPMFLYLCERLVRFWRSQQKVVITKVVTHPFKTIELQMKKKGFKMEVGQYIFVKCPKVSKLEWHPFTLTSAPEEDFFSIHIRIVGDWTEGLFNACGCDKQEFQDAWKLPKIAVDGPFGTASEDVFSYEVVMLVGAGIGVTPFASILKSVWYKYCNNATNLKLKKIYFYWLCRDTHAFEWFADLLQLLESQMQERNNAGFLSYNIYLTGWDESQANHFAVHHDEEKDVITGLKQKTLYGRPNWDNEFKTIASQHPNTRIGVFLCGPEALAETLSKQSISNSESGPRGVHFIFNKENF
T2 sequence (P13498 2-195 partner limits assumed): T1 sequence (P13498 2-195 partner limits assumed)
Description: NOX2 HL60 cell-based assay (PMA oxidative burst, L012 chemiluminescence). The conditions noted are these: DMSO-differentiated HL-60 cells, PMA-stimulated; for inhibition at 1 µM: HL-60, 1000 nM; for inhibition at 0.1 µM: HL-60, 100 nM. Summed up:
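DMSO-differentiated HL-60 cells (2.5×10^5/well) with 100 μM L012 preincubated with compound 30-60 min at 37 °C in the dark. Oxidative burst triggered by 10 ng/mL PMA; superoxide chemiluminescence read every 5 min for 60 min.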

The target in another assay is T3, NOX4 (Homo sapiens, UniProt Q9NPH5).
T3 construct: expressed in transfected cells
T3 sequence (Q9NPH5 1-578): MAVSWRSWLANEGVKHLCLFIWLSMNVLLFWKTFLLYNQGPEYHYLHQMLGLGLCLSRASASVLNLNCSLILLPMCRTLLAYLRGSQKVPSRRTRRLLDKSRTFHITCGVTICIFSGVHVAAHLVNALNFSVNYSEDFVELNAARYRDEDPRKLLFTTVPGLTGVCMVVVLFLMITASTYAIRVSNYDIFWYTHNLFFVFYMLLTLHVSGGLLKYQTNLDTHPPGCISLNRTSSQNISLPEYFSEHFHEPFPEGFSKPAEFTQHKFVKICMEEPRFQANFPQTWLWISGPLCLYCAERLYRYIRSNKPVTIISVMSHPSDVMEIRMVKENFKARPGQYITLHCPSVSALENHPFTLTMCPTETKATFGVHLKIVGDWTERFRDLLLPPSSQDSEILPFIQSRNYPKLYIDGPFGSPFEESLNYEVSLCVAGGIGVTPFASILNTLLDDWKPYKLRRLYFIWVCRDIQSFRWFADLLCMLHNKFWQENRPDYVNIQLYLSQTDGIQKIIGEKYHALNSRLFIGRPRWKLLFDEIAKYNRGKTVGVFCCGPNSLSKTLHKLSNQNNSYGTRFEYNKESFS
T3 sequence (P13498 2-195 partner limits assumed): T1 sequence (P13498 2-195 partner limits assumed)
Description: NOX4 HEK293 overexpression cell-based assay (Amplex Red H2O2). The conditions noted are these: HEK293 cells stably overexpressing NOX4, DMSO = 0, GKT137831 = 100; for inhibition at 0.1 µM: HEK293, 100 nM; for inhibition at 1 µM: HEK293, 1000 nM. Summed up:
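HEK293 cells stably overexpressing NOX4 (3×10^4) preincubated 30 min at 37° C with compound in KRPG buffer, then mixed with Amplex Red reagent solution (50 μM Amplex Red, 0.1 units/mL HRP) for 90 min at 37° C in the dark. Supernatant fluorescence read at 530/590 nm; DMSO set to 0 and GKT137831 to 100.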

From patent US11661400B2, “NADPH oxidase inhibitors, pharmaceutical composition comprising the same, and application thereof” (TAIWANJ PHARMACEUTICALS CO., LTD., priority 2018, dated 2023) come the findings set out here.

`COc1ccccc1-c1[nH]c2cccc(-c3cccc(N(C)C)c3)c2c(=O)c1O` [Compound 40]: the inhibition at 0.1 µM at NOX1 (100 nM) and on NOX4 was at most 19% in each case. The inhibition at 1 µM is at least 80% against NOX1 (1000 nM), 50 to 79% at NOX2 and 50 to 79% at NOX4. Moreover, the “% Inhibition NOX2” value at NOX2 (100 nM) was “C (the percent of inhibition of NOX by the compounds ranges from 2000 to 49%)”.
Turning to `COc1cc2[nH]c(-c3ccccc3C(F)(F)F)c(O)c(=O)c2cc1OC` [Compound 17], the inhibition at 0.1 µM at NOX1 (100 nM) was at least 80%; on NOX4 it was 50 to 79%. The inhibition at 1 µM at NOX1 (1000 nM) was at least 80%; against NOX4, 50 to 79%. For the same compound, the “% Inhibition NOX2” value on NOX2 (100 nM, 0.1 µM) is on record as “C (the percent of inhibition of NOX by the compounds ranges from 2000 to 49%)”; on NOX2 (1000 nM, 1 µM), “B (the percent of inhibition of NOX by the compounds ranges from 50% o to 79% o)”.
With `Br.O=c1c(O)c(-c2ccc(O)cc2)[nH]c2cc(O)c(O)cc12` [Compound 3, 3,6,7-trihydroxy-2-(4-hydroxyphenyl) quinolin-4(1H)-one hydrobromide], the “% Inhibition NOX1” value on NOX1 (100 nM) is recorded as “C (the percent of inhibition of NOX by the compounds ranges from 2000 to 49%)”. The inhibition at 1 µM against NOX1 (1000 nM) was at least 80%; against NOX2, at least 80%; at NOX4, 50 to 79%. Moreover, at NOX2 (100 nM), the “% Inhibition NOX2” value is on record as “C (the percent of inhibition of NOX by the compounds ranges from 2000 to 49%)”. Also, the inhibition at 0.1 µM on NOX4 is at most 19%.
With `COc1cc2[nH]c(-c3ccccc3)c(N)c(=O)c2cc1OC` [Compound 37], the results for the inhibition at 0.1 µM on NOX1 (100 nM), against NOX2 and against NOX4 were at most 19%, 50 to 79% and at most 19%, respectively. Further, the figures for the inhibition at 1 µM against NOX1 (1000 nM), on NOX2 and on NOX4 were at least 80%, at least 80% and 50 to 79%, respectively.
Consider `COc1cc2[nH]c(-c3ccccc3C(F)(F)F)c(O)c(=O)c2cc1OC.Cl` [Compound 42, 3-hydroxy-6,7-dimethoxy-2-(2-(trifluoromethyl)phenyl) quinolin-4(1H)-one hydrochloride], for which the “% Inhibition NOX1” value on NOX1 (100 nM) and on NOX1 (1000 nM) was “A (the percent of inhibition of NOX by the compounds is larger than or equals to 80%)” in each case. In addition, the “% Inhibition NOX2” value on NOX2 (1000 nM) was “A (the percent of inhibition of NOX by the compounds is larger than or equals to 80%)”. On NOX2, the inhibition at 0.1 µM lay within 50 to 79%. For the same compound, the “% Inhibition NOX4” value on NOX4 (100 nM) and on NOX4 (1000 nM) was “B (the percent of inhibition of NOX by the compounds ranges from 50% o to 79% o)” throughout.
With `COc1cc2[nH]c(-c3ccccc3OC(F)(F)F)c(O)c(=O)c2cc1OC` [Compound 20], the inhibition at 0.1 µM against NOX1 (100 nM) was at least 80%; against NOX2 it was 50 to 79%. Also, the inhibition at 1 µM at NOX1 (1000 nM) is at least 80%. Also, the “% Inhibition NOX2” value on NOX2 (1000 nM, 1 µM) was “A (the percent of inhibition of NOX by the compounds is larger than or equals to 80%)”. The “% Inhibition NOX4” value is “C (the percent of inhibition of NOX by the compounds ranges from 2000 to 49%)” on NOX4 (100 nM) and “B (the percent of inhibition of NOX by the compounds ranges from 50% o to 79% o)” at NOX4 (1000 nM, 1 µM).
Take `COc1cc2[nH]c(-c3ccc(N4CCCC4)cc3)c(O)c(=O)c2cc1OC` [Compound 11]: the inhibition at 0.1 µM at NOX1 (100 nM) and against NOX2 was at most 19% throughout. For the same compound, the inhibition at 1 µM against NOX1 (1000 nM) was 50 to 79%; against NOX2 it was at most 19%; against NOX4 it was at least 80%. At NOX4 (100 nM), the “% Inhibition NOX4” value is on record as “C (the percent of inhibition of NOX by the compounds ranges from 2000 to 49%)”.
Take `COc1cc2[nH]c(-c3ccccc3C(F)(F)F)c(O)c(=O)c2cc1OC` [Compound 41, 3-hydroxy-6,7-dimethoxy-2-(2-(trifluoromethyl)phenyl) quinolin-4(1H)-one]: the “% Inhibition NOX1” value on NOX1 (100 nM) and on NOX1 (1000 nM) was “A (the percent of inhibition of NOX by the compounds is larger than or equals to 80%)” in each case. The “% Inhibition NOX2” value at NOX2 (100 nM, 0.1 µM) is “C (the percent of inhibition of NOX by the compounds ranges from 2000 to 49%)”; at NOX2 (1000 nM, 1 µM), “A (the percent of inhibition of NOX by the compounds is larger than or equals to 80%)”. Moreover, the “% Inhibition NOX4” value on NOX4 (100 nM) and at NOX4 (1000 nM) was “B (the percent of inhibition of NOX by the compounds ranges from 50% o to 79% o)” throughout.
`COc1cc2[nH]c(-c3ccc(Cl)cc3Cl)c(O)c(=O)c2cc1OC` [Compound 24] came in with an inhibition at 0.1 µM at NOX1 (100 nM) of at least 80%. Besides, the inhibition at 1 µM against NOX1 (1000 nM) was at least 80%; against NOX2, at least 80%; on NOX4 it was 50 to 79%. In addition, the “% Inhibition NOX2” value at NOX2 (100 nM, 0.1 µM) is listed as “C (the percent of inhibition of NOX by the compounds ranges from 2000 to 49%)”. For the same compound, the “% Inhibition NOX4” value at NOX4 (100 nM) is “C (the percent of inhibition of NOX by the compounds ranges from 2000 to 49%)”.
For `COc1cc2[nH]c(-c3ccc(C)cc3)c(O)c(=O)c2cc1OC` [Compound 6], the inhibition at 0.1 µM against NOX1 (100 nM) was at least 80%; against NOX2, at most 19%. Further, the inhibition at 1 µM is at least 80% against NOX1 (1000 nM), at most 19% against NOX2 and 50 to 79% at NOX4. The “% Inhibition NOX4” value on NOX4 (100 nM) is on record as “C (the percent of inhibition of NOX by the compounds ranges from 2000 to 49%)”.

For orientation: inhibition means the drop in the measured response relative to a control, in per cent. The low end stands for a response near the control, the high end for a response far below the control.
